Data set [1] is described as follows: Stability in presence of human serum (proteolytic enzymes). The class given is in vitro ADME. The settings on record: RPMI 1640 with 10% human serum (v/v), 37 °C, 15 min pre-incubation, 10 μL of 5 mg/mL DMSO stock in 1 mL, RP-HPLC and mass spectrometry. The source says: Further, to test the stability of these peptidommetics in biological system we performed in vitro stability study in presence of human serum[37][38] which contained sufficient concentration of proteolytic enzymes. We selected BSBHPs 3 and 7, as from the results of all the experiments described above it was clear that BSBHps 3 (one breaker element containing) and 7 (two breaker elements containing) were the best among all the synthesized peptidomimetics. We compared the stability of 3 and 7 with their native peptide analogue (1) using time dependent HPLC & Mass spectrometry studies.
1 mL of the RPMI (Roswell Park Memorial Institute) 1640 media supplemented with 10% human serum (v/v) obtained from Thermo Fisher Scientific was taken in three different 2 mL eppendorf tube and incubated them at 37 °C for 15 min[38]. Then, 10 μL of the peptidomimetics (1, 3 & 7) in DMSO (5 mg/mL) were separately added to the RPMI media and incubated them at 37 °C. At different time interval 100 μL of the aliquot was taken out from the three different eppendorf tubes and added to 200 μL ethanol solution (96% aqueous ethanol) for precipitation of the serum protein. The precipitate was cooled (4 °C) for 10 min and then centrifuged at 18,000 rpm for 2 min and the pellet was discarded. The supernatant was collected and analyzed by RP-HPLC & Mass spectrometry. A linear gradient was used in the HPLC, from 5–100% CH3CN for 18 min followed by 100% CH3CN till 20 min with a flow rate of 4 mL/min using a semi-preparative C18-μ Bondapak column. Binary solvent system were used, solvent A (0.1% TFA in H2O) and solvent B (0.1% TFA in CH3CN).

The target of the next data set is T1, hIAPP1-37 (Homo sapiens, UniProt P10997).
T1 construct: 3.1 mg of hIAPP(1-37) was dissolved in 50 μL of HFIP
T1 sequence (P10997 34-70): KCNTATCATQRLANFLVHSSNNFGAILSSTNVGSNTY
Put plainly: Time dependent Thioflavin T assay, inhibition of amyloid formation of hIAPP. As to conditions: 10-fold molar excess of peptidomimetic co-incubated with hIAPP 40 μM, PBS pH 7.4, 37 °C, up to 7 days; average of 3 replica. The class given is biochemical. As for the experimental part: To examine the inhibitory efficacy of the single breaker element (I26X) containing BSBHps (3, 4 and 5), we performed various biophysical studies in absence and presence of BSBHps and compared the effect with that of the control 2. The BSBHps and the control were co-incubated with hIAPP in PBS pH 7.4 at 37 °C up to 7 days and the kinetics of the amyloid formation was monitored using various biophysical tools. To investigate dose dependence, 2-, 5- and 10-fold molar excess of peptidomimetics were incubated with hIAPP.
(§1) 3.1 mg of hIAPP(1-37) was dissolved in 50 μL of HFIP to obtain disaggregated hIAPP and HFIP was evaporated using nitrogen gas[43]. This process was repeated twice. Then, 5 mL of Milli Q water was added to the disaggregated material and divided the whole solution into 25 equal portions with 200 μL each. All 25 portions are lyophilized followed by addition of 800 μL of PBS (50 mM, pH 7.4) to each portion to obtain a final hIAPP concentration of 40 μM.
(§2) 50 μM Thioflavin T (ThT) in PBS (50 mM, pH 7.4) was prepared. All the synthesized peptides and hIAPP (alone and in some cases mixed with breaker peptides) were dissolved in PBS (50 mM, pH 7.4) to obtain a desired stock solution (40 μM in the case of hIAPP) and incubated at 37 °C over a water bath. To perform the fluorescence study, 40 μL of sample was taken out from the stock solution and was mixed with 200 μL of ThT solution (50 μM); final volume was made up to 400 μL with PBS. For ThT fluorescence assay, emission was measured at 490 nm and excitation at 435 nm, using a slit of 3 nm on a Fluoromax-4, Horiba instrument. The text files were taken from the instrument and graphs were plotted using OriginPro 8 software. For each data point 3 different sets of replica were scanned separately and average was taken with observed standard deviation.

Data set [2] addresses T2, preformed fibrils of hIAPP (Homo sapiens, UniProt P10997).
T2 construct: 3.1 mg of hIAPP(1-37) was dissolved in 50 μL of HFIP
T2 sequence (P10997 34-70): T1 sequence (P10997 34-70)
Put plainly: Time dependent Thioflavin T assay, disruption of preformed fibrils of hIAPP. The class given is biochemical. The settings on record: 10-fold molar excess added at 48 h to hIAPP 40 μM preincubated in PBS pH 7.4, 37 °C; total 7 (2 + 5) days; average of 3 replica. The method, then: We already observed that the BSBHps (3, 4, 7, and 8) were efficient inhibitors. Further, we investigated the ability of those molecules to disrupt preformed fibrils of hIAPP in vitro. From the ThT assay (black, Fig. 2a), we observed that hIAPP fibrillzation was maximum at ~45–50 h. Therefore, we designed an experiment where the BSBHps were added into the preformed fibrillar assembly at 48 h (2 days). The hIAPP was incubated alone in PBS pH 7.4 at 37 °C for 48 h (2 days) and then varied molar excess (2-, 5-, and 10-fold) of designed peptidomimetics were added to it and fibril disruption was monitored by various biophysical tools.
as §1, §2

A short description of data set [3]: Carboxyfluorescein dye leakage assay. The settings on record: sample 2: hIAPP incubated for 12 h; LUVs DPPC:cholesterol:GM1 68:30:2, 50 mM HEPES pH 7.4; peptide:lipid 1:20; 0 to 100 min. As for the experimental part: The hIAPP soluble oligomers are known as more toxic than the matured amyloid, since they can damage the cell by forming pores on the cell membrane. […] To perform the vesicle leakage study, we have prepared 9 sets of different samples including untreated LUVs (without any peptide) as control for the experiment. All the peptidomimetics were added to hIAPP solution after 48 h of incubation and kept for total of 7 days (168 h = 48 h + 120 h) of incubation. After that different peptide solutions were added separately to the LUVs and leakage studies were performed. The different type of samples that were prepared is described below;
The peptide and the lipid were present in 1:20 molar ratios during leakage analysis. At the end of the experiment 10 μL of Triton X-100 was added to obtain complete dye release from the vesicle and the final fluorescence was measured. In addition to those, untreated LUVs (natural dye leakage) were studied and used as control. % dye leakage was calculated as[35],
The LUVs were prepared using three different lipids, DPPC, Cholesterol and GM1 with 68:30:2 molar ratios in 50 mM HEPES buffer of pH 7.4. Prior to the LUVs preparation, all the lipids were taken in clean glass vessel and solubilize to make 2 mM stock solution in chloroform and methanol (2:1) and the solvents were evaporated under vacuum. […]

Where a SMILES comes first, the peptide text is derived from it. Where no end group is shown, it is not given here. [ ]: non-standard residue; d: D form. 3Abz = Nc1cccc(C(=O)O)c1; 4Abz = Nc1ccc(C(=O)O)cc1; 2Abz = Nc1ccccc1C(=O)O; Aib = CC(C)(N)C(=O)O

As to `CC(C)C[C@H](NC(=O)c1ccccc1NC(=O)[C@H](C)NC(=O)c1ccccc1NC(=O)[C@H](Cc1ccccc1)NC(=O)[C@@H](N)CC(N)=O)C(N)=O` [Peptide 7] (H-NF[2Abz]A[2Abz]L-NH2), in data set [1], the “Degradation in presence of human serum at 25 h” value is given as “complete retention of the peak”. Moreover, the “Inhibition of hIAPP amyloid formation (suppression of ThT fluorescence intensity)” value (“Inhibition of hIAPP amyloid formation” for short) on hIAPP1-37 is given as ~ 70%. The “Disruption of preformed hIAPP amyloid (ThT assay)” value (shortened to “Disruption”) in data set [2] is given as ~ 57%.

Regarding `CC(C)C[C@H](NC(=O)c1cccc(NC(=O)[C@H](C)NC(=O)c2cccc(NC(=O)[C@H](Cc3ccccc3)NC(=O)[C@@H](N)CC(N)=O)c2)c1)C(N)=O` [Peptide 8] (H-NF[3Abz]A[3Abz]L-NH2), the “Inhibition of hIAPP amyloid formation” value at hIAPP1-37 is reported as ~ 65%. For the same compound, the “Disruption” value in data set [2] is given as ~ 44%.

Turning to `CC[C@H](C)[C@H](NC(=O)[C@H](C)NC(=O)CNC(=O)[C@H](Cc1ccccc1)NC(=O)[C@H](CC(N)=O)NC(=O)[C@H](CC(N)=O)NC(=O)[C@H](CO)NC(=O)[C@H](CO)NC(=O)[C@H](Cc1c[nH]cn1)NC(=O)[C@@H](NC(=O)[C@H](CC(C)C)NC(=O)[C@H](Cc1ccccc1)NC(=O)[C@H](CC(N)=O)NC(=O)[C@H](C)NC(=O)[C@H](CC(C)C)NC(=O)[C@H](CCCNC(=N)N)NC(=O)[C@H](CCC(N)=O)NC(=O)[C@@H](NC(=O)[C@H](C)NC(=O)[C@@H]1CSSC[C@H](NC(=O)[C@@H](N)CCCCN)C(=O)N[C@@H](CC(N)=O)C(=O)N[C@@H]([C@@H](C)O)C(=O)N[C@@H](C)C(=O)N[C@@H]([C@@H](C)O)C(=O)N1)[C@@H](C)O)C(C)C)C(=O)N[C@@H](CC(C)C)C(=O)N[C@@H](CO)C(=O)N[C@@H](CO)C(=O)N[C@H](C(=O)N[C@@H](CC(N)=O)C(=O)N[C@H](C(=O)NCC(=O)N[C@@H](CO)C(=O)N[C@@H](CC(N)=O)C(=O)N[C@H](C(=O)N[C@@H](Cc1ccc(O)cc1)C(N)=O)[C@@H](C)O)C(C)C)[C@@H](C)O` [hIAPP], in data set [3], the “Dye leakage of LUVs treated with hIAPP” value is “rapid increment of dye leakage”.

On to `CC(C)C[C@H](NC(=O)c1ccc(NC(=O)[C@H](C)NC(=O)CNC(=O)[C@H](Cc2ccccc2)NC(=O)[C@@H](N)CC(N)=O)cc1)C(N)=O` [Peptide 5] (H-NFGA[4Abz]L-NH2), for which the “Enhancement of ThT fluorescence intensity of hIAPP” value at hIAPP1-37 is recorded as ~ 5%.

`CC(C)C[C@H](NC(=O)c1cccc(NC(=O)[C@H](C)NC(=O)CNC(=O)[C@H](Cc2ccccc2)NC(=O)[C@@H](N)CC(N)=O)c1)C(N)=O` [Peptide 4] (H-NFGA[3Abz]L-NH2): at hIAPP1-37, the “Inhibition of hIAPP amyloid formation” value is given as ~ 50%. Also, in data set [2], the “Disruption” value is recorded as ~ 33%.

On to `CC(C)C[C@H](NC(=O)C(C)(C)NC(=O)[C@H](C)NC(=O)C(C)(C)NC(=O)[C@H](Cc1ccccc1)NC(=O)[C@@H](N)CC(N)=O)C(N)=O` [Peptide 6] (H-NF[Aib]A[Aib]L-NH2), for which, on hIAPP1-37, the “Inhibition of hIAPP amyloid formation” value is given as ~ 52%. In addition, the “Disruption” value in data set [2] is listed as ~ 40%.

For the compound “NFGAIL-NH2 [Peptide 1, reference compound]”, the “Degradation in presence of human serum after 1 h” value in data set [1] (after 1 h) is given as “complete degradation”.

With `CC(C)C[C@H](NC(=O)C(C)(C)NC(=O)[C@H](C)NC(=O)CNC(=O)[C@H](Cc1ccccc1)NC(=O)[C@@H](N)CC(N)=O)C(N)=O` [Peptide 2] (H-NFGA[Aib]L-NH2), the “Inhibition of hIAPP amyloid formation” value on hIAPP1-37 is listed as ~ 40%. The “Disruption” value in data set [2] is ~ 23%.

For `CC(C)C[C@H](NC(=O)c1ccc(NC(=O)[C@H](C)NC(=O)c2ccc(NC(=O)[C@H](Cc3ccccc3)NC(=O)[C@@H](N)CC(N)=O)cc2)cc1)C(N)=O` [Peptide 9] (H-NF[4Abz]A[4Abz]L-NH2), on hIAPP1-37, the “Enhancement of ThT fluorescence intensity of hIAPP” value is ~ 12%.

As for `CC(C)C[C@H](NC(=O)c1ccccc1NC(=O)[C@H](C)NC(=O)CNC(=O)[C@H](Cc1ccccc1)NC(=O)[C@@H](N)CC(N)=O)C(N)=O` [Peptide 3] (H-NFGA[2Abz]L-NH2), the “Degradation in presence of human serum at 25 h” value in data set [1] is given as “some degradation”. The “Inhibition of hIAPP amyloid formation” value at hIAPP1-37 was ~ 55%. In addition, the “Disruption” value in data set [2] is listed as ~ 40%.

The values are drawn from publication PMC5214534, “Disaggregation of Amylin Aggregate by Novel Conformationally Restricted Aminobenzoic Acid containing α/β and α/γ Hybrid Peptidomimetics” (Scientific Reports, 2017).
